Experimental data taken from patent US5843948A, “Piperazinophenyl- and piperazinophenyloxycarboxylic acid derivatives, and processes and intermediates for their preparation and pharmaceutical compositions comprising them” (Solvay Pharmaceuticals GmbH, priority 1996, dated 1998).

biological target: T1, purified GP IIb/IIIa fibrinogen receptor from human blood platelets (Homo sapiens, UniProt P05106+P08514); assay: Inhibition of fibrinogen binding to GP IIb/IIIa, solid phase enzyme immunoassay of the ELISA type (Kouns et al.); settings: purified human plasma fibrinogen 20 μg/ml, 37° C., 2 hours, read-out: pIC50 (negative common logarithm of the IC50 for inhibition of the specific fibrinogen binding of GP IIb/IIIa) (converted)
T1 construct: purified GP IIb/IIIa fibrinogen receptor from human blood platelets; from tissue; host or cells: human blood platelets
Procedure: The inhibitory action of the substances of the formula I on the fibrinogen binding to the fibrinogen receptor of the blood platelets, the GP IIb/IIIa, was detected in a solid phase enzyme immunoassay of the ELISA type ("Enzyme-Linked Immunosorbent Assay") according to the method described by Kouns et al. (Blood 80 (1992) 2539-2547).
A solution of purified GP IIb/IIIa fibrinogen receptor from human blood platelets (1 μg/ml in phosphate-buffered physiological saline solution, pH 7.4) was applied in portions of 100 μl/sample position to a microtitre plate and allowed to stand at 4° C. for 18 hours. Excess receptor reagent was washed off by a standard wash (3 times 350 μl of wash buffer solution/sample position: 0.01% (v/v) Tween 80 in phosphate-buffered physiological saline solution) and unoccupied residual protein binding sites were occupied by a blocking reagent [300 μl/sample position of an aqueous receptor buffer solution: 20 mmole/liter of tris(hydroxymethyl)aminomethane, 150 mmole/liter of NaCl, 1 mmole/liter of MgCl2, 1 mmole/liter of CaCl2; treated with 5% (w/v) bovine serum albumin (BSA)]. The mixture was incubated at 37° C. for 2 hours and excess blocking reagent was removed.
Purified human plasma fibrinogen [100 μl/sample position of a 20 μg/ml solution in test buffer. Test buffer=receptor buffer mixed with 1% (w/v) BSA] was then added together with the test substance dissolved therein (concentration dependent on the test substance) and incubated at 37° C. for 2 hours. Unbound fibrinogen was removed by standard washing and the incubation was continued for a further hour at room temperature after addition of biotinylated rabbit antibodies against human fibrinogen (100 μl/sample position in optimum use dilution, dissolved in test buffer) . After a further standard wash, horseradish peroxidase-conjugated streptavidin (1:2000, in suitable dilution in test buffer) was added, and the mixture was incubated again at room temperature for one hour, followed by a further standard wash.
Finally, the peroxidase substrate 2,2'-azinodi-(3-ethylbenzothiazolinesulfonate) (abbreviated below as ABTS), (100 μl/sample position of a solution of 0.4 g/liter of ABTS in 0.1 mole/liter of citric acid buffer, adjusted to pH 4 using 0.4 mole/liter of NaH2 PO4 ·2 H2 O), treated with 0.003% (w/v) hydrogen peroxide, was added and the extinction of the mixture was measured at 405 nm at 5 minute intervals for twenty minutes.
The peroxidase activity was determined from the measurements as the increase in the extinction with time. It was used to calculate the total fibrinogen binding and also the non-specific fibrinogen binding. The non-specific fibrinogen binding was determined without addition of the GP IIb/IIIa. The specific fibrinogen binding could be calculated from these two values. The effect of the test substances was expressed in IC50 values, which were obtained by interpolation from concentration-dependent measuring curves. The IC50 is that concentration in μmole/liter at which a test substance inhibits the specific fibrinogen binding of GP IIb/IIIa by 50%. The following Table 1 presents the IC50 values found for the test substance as negative common logarithms, the pIC50 values. The example numbers relate to the subsequent preparation examples.

T1 sequence (P08514 32-887 limits assumed): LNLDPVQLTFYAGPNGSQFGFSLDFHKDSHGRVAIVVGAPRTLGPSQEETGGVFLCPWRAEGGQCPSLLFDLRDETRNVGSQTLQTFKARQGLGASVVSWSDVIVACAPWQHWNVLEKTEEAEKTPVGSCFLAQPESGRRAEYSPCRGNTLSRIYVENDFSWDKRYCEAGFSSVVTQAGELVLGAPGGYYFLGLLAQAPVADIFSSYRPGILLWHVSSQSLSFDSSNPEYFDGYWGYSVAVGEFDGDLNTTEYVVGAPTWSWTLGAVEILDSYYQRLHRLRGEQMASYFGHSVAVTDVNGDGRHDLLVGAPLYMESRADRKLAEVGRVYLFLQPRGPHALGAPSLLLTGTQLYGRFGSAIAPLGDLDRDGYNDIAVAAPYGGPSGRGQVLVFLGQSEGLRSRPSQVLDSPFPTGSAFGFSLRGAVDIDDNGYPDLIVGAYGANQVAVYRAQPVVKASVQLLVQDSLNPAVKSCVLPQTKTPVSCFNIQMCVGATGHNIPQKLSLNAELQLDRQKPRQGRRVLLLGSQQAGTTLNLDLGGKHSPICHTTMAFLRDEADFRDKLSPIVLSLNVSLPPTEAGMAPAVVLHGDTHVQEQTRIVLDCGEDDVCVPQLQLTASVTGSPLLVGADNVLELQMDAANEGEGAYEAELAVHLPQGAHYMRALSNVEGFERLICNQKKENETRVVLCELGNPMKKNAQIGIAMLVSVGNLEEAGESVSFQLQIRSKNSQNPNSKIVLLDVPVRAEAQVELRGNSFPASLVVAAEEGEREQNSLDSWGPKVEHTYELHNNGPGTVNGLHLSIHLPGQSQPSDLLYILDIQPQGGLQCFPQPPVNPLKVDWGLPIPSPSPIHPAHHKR
T1 sequence (P08514 891-1039 limits assumed): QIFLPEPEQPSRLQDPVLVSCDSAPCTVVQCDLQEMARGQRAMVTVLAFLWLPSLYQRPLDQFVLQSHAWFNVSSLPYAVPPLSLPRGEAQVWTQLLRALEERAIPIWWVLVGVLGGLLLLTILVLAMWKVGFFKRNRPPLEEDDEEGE
T1 sequence (P05106 27-788): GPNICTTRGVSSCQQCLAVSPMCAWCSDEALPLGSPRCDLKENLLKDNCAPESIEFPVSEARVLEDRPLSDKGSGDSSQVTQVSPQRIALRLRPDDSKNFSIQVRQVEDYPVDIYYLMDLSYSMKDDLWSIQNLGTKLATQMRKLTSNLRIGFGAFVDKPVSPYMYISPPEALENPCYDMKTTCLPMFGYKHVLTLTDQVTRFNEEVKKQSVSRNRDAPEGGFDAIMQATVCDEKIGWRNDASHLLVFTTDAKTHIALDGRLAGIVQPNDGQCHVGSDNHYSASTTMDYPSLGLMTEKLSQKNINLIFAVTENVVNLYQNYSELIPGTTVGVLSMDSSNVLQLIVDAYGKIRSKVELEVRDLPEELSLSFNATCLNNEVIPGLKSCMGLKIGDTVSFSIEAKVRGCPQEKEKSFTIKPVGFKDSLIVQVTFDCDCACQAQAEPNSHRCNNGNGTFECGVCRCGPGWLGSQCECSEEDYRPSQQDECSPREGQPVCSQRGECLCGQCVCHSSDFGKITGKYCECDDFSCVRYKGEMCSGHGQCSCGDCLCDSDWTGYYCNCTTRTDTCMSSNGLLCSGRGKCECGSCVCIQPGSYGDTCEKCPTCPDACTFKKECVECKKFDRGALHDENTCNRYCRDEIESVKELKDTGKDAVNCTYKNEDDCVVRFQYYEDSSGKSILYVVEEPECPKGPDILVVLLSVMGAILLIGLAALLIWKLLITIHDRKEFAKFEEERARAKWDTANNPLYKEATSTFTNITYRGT

| SMILES | IC50 [nM] |
| --- | --- |
| COC(=O)COc1ccc(N2CCN(c3ccc(C(=N)N)cn3)CC2)cc1 [Example 7, Methyl 4-{4-[2-(5-amidinopyridyl)]-1-piperazinyl}phenoxyacetate] | 36.3 |
| N=C(N)c1ccc(N2CCN(c3ccc(OCC(=O)O)cc3)CC2)cc1 [Example 2a, 4-[4-(4-Amidinophenyl)-1-piperazinyl]-phenoxyacetic acid] | 1.58 |
| N=C(N)c1ccc(N2CCN(c3ccc(OCC(=O)O)cc3)CC2)nc1 [Example 6, 4-{4-[2-(5-Amidinopyridyl)]-1-piperazinyl}-phenoxyacetic acid] | 1.55 |

More lines, now with the values ahead:

| IC50 [nM] | SMILES |
| --- | --- |
| 28.2 | N=C(N)c1ccc(N2CCN(c3ccc(CCC(=O)O)cc3)CC2)cc1 [Example 12] |
| 30.2 | N=C(N)c1ccc(N2CCN(c3ccc(CCC(=O)O)cc3)CC2)nc1 [Example 10, 3-{4-[4-(2-(5-Amidinopyridyl))-1-piperazinyl]-phenyl}propionic acid] |
